Read-outs that look alike come from different tables or passages of the source.
Columns and labels:
human ACC1 = target: T1, human ACC1 (Homo sapiens, UniProt Q13085); experiment: ACC1 inhibitory activity (malachite green absorbance assay, recombinant enzyme); type: biochemical
T1 construct: made in house; host or cells: SF-9 insect cells, recombinant baculovirus BAC-ACC1
Description: The ACC1 inhibitory activity of the compound of the present invention was evaluated by the following method.
(§1) Human ACC1 gene was cloned by PCR using human liver cDNA library (Clontech) as a template, and Primer 1 and Primer 2 shown below. Primer 1 and Primer 2 were prepared by adding recognition sequence of restriction enzymes SalI and NotI based on the information of the base sequence (Genbank Accession U19822) of human ACC1 gene.
(§2) PCR was performed using Pyrobest DNA polymerase (TAKARA BIO INC.). The obtained PCR product was cloned to pT7 Blue vector (Novagen) which was, after confirmation of the base sequence, digested with restriction enzymes SalI and NotI. The obtained DNA fragment was inserted into pFAST-BacHTc (Invitrogen) digested with restriction enzymes SalI and NotI to give expression plasmid ACC1/pFAST-BacHTc.
Using the expression plasmid and BAC-TO-BAC Baculovirus Expression System (Invitrogen), virus stock BAC-ACC1 of recombinant Baculovirus was prepared.
(§3) SF-9 cells (Invitrogen) were sown at 1×10^6 cells/mL to insect cell culture medium (1 L, Sf-900II SFM medium (Invitrogen) containing 10% fetal bovine serum (Trace), 50 mg/L gentamicin (Invitrogen) and 0.1% Pluronic F-68 (Invitrogen)), and shaking culture was performed using a 2 L volume Erlenmeyer flask at 27° C., 100 rpm.
After culturing for 24 hr, the recombinant Baculovirus BAC-ACC1 (10 mL) was added, and the mixture was further cultured for 3 days. The culture medium was centrifuged at 1000×g for 5 min to give virus-infected cells. The infected cells were washed with phosphate buffered saline (Invitrogen) and centrifuged under the same conditions, and the obtained cells were cryopreserved at −80° C.
The cryopreserved cells were thawed in ice, suspended in 25 mM HEPES buffer (100 mL, pH 7.5) containing 10% Glycerol, 0.13 M NaCl, 1 mM EDTA, 25 mM sodium β-glycerophosphate, 1 mM sodium orthovanadate, added with Complete Protease Inhibitor (Boehringer). The obtained suspension was homogenized 3 times with a Polytron homogenizer (Kinematica) at 20,000 rpm for 30 seconds. The obtained cell disrupt solution was clarified by centrifugation at 185700×g for 50 min and filtrated using a 0.45 μm filter. The filtrate was passed through a column packed with Ni-NTA Super Flow Gel (QIAGEN, 12 mL) at a flow rate of about 5 mL/min. The column was washed with buffer A (50 mM HEPES containing 0.3M NaCl, pH 7.5), further washed with buffer A containing 20 mM Imidazole, and eluted with buffer A containing 100 mM Imidazole. The eluate was concentrated with Vivaspin 20 (Vivascience) having a molecular weight cut off of 30 K. The obtained concentrate was dialyzed using Sephadex G-25 (Amersham Bioscience K.K., 358 mL) equilibrated with 50 mM HEPES (pH7.5) containing 10 mM MgCl2, 2 mM dithiothreitol, 10 mM tripotassium citrate and 0.3M NaCl. The dialysate was concentrated with Vivaspin 20 (Vivascience) having a molecular weight cut off of 30 K and the concentrate was filtered through a 0.22 μm filter to give ACC1. The obtained ACC1 was cryopreserved at −80° C.
ACC1 (0.93 mg/ml) obtained in (2) above was diluted to a concentration of 8 μg/ml with an enzyme reaction buffer (50 mM HEPES (pH7.5), 10 mM MgCl2, 10 mM tripotassium citrate, 2 mM dithiothreitol, 0.75 mg/ml fatty acid free BSA), and added to each well of a 384 well assay plate (Nunc 265196) by 10 μl. […]

human ACC2 = target: T2, human ACC2 (Homo sapiens, UniProt O00763); experiment: ACC2 inhibitory activity (malachite green absorbance assay, recombinant ACC2(Nd)); type: biochemical
T2 construct: made in house; host or cells: SF-9 insect cells, recombinant baculovirus BAC-ACC2(Nd)
T2 sequence (O00763 117-2458 limits assumed): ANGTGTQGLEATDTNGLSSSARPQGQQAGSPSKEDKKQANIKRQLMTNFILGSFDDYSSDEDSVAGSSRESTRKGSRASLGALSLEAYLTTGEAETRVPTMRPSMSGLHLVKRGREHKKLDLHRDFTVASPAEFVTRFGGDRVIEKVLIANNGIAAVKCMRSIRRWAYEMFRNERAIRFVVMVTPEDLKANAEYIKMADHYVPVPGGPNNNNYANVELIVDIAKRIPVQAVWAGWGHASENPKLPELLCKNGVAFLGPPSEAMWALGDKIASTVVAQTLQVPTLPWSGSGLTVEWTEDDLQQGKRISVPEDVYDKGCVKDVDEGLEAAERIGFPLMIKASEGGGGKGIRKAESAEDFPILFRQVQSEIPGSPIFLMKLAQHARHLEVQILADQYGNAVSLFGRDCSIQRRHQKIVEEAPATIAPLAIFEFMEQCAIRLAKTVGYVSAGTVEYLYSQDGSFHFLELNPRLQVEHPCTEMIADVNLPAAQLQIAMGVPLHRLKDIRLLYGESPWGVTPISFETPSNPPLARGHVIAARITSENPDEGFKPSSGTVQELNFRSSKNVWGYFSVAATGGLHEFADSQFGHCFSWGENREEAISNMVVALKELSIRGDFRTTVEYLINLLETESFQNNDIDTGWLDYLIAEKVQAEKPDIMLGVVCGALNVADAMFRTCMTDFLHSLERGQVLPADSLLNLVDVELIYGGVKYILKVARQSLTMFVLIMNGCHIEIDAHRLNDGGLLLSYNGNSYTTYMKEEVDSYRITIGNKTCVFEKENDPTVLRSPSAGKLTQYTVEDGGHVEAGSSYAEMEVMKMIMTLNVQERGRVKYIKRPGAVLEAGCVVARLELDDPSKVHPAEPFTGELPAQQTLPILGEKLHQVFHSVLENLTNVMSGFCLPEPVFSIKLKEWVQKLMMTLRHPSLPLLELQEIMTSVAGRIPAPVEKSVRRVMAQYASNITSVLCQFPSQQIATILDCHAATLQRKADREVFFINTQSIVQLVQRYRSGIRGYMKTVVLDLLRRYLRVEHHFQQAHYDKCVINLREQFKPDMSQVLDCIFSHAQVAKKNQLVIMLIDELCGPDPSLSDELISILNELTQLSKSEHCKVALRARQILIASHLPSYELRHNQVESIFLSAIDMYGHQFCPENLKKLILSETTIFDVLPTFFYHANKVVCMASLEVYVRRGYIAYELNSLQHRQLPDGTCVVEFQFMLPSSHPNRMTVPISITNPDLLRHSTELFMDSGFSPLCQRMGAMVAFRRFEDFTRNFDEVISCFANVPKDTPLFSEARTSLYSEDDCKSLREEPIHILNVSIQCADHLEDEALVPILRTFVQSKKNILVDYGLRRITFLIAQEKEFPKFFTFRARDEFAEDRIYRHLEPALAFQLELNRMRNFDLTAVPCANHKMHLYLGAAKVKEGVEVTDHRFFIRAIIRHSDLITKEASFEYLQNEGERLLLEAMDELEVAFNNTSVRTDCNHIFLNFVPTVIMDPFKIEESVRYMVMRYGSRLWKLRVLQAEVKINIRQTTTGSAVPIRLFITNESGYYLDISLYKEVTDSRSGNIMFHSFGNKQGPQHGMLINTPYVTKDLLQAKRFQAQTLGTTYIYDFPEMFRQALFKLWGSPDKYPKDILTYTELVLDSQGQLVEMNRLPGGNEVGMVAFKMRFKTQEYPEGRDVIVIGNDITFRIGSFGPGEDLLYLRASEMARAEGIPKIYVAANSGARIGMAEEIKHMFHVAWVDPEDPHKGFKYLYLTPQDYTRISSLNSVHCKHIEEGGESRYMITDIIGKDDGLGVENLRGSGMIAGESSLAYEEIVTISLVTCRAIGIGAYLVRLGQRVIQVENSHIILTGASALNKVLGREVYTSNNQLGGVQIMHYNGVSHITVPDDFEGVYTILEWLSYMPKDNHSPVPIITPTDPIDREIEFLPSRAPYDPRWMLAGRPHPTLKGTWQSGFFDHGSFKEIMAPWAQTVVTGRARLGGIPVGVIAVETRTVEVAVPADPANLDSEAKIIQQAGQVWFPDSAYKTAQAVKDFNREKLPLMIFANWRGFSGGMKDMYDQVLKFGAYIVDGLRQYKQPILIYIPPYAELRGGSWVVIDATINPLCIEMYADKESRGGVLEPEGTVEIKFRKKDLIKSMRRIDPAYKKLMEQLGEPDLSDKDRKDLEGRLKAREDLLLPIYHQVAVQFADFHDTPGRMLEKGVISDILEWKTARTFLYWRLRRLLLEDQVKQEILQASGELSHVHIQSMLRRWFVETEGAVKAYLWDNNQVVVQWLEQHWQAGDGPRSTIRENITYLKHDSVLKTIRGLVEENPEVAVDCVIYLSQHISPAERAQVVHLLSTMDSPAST
Description: The ACC2 inhibitory activity of the compound of the present invention was evaluated by the following method.
as §1, with “ACC2” for “ACC1”, “skeletal muscle” for “liver”, “XbaI” for “NotI”, “U89344)” for “U19822)”
as §2, with “XbaI.” for “NotI.”, “pFAST-BacHTa” for “pFAST-BacHTc”, “XbaI” for “NotI”, “ACC2/pFAST-BacHTa.” for “ACC1/pFAST-BacHTc.”
A plasmid for expression of ACC2 free of mitochondrial targeting sequence was prepared by PCR using the expression plasmid as a template, and Primer 3 and Primer 4 shown below.
as §2, with “AflII.” for “NotI.”, “pFAST-BacHTa” for “pFAST-BacHTc”, “AflII” for “NotI”, “ACC2mito7/pFAST-BacHTa.” for “ACC1/pFAST-BacHTc.”
Using the expression plasmid and BAC-TO-BAC Baculovirus Expression System (Invitrogen), virus stock BAC-ACC2 of recombinant Baculovirus (N terminal deletion (hereinafter Nd)) was prepared.
as §3, with “0.5×10^6” for “1×10^6”, “(2” for “(1”, “Wave Bioreactor (Wave) under the conditions of” for “2 L volume Erlenmeyer flask at”, “20 rpm, rocking angle of 6° and oxygen concentration of 30%.” for “100 rpm.”
On day 4 of the culture, 3 L of an insect cell culture medium was added, the rocking angle was set to 8°, and the cells were further cultured. On day 5 of the culture, the recombinant Baculovirus BAC-ACC2(Nd) (100 mL) was added, 5 L of the insect cell culture medium was further added, the rocking angle was set to 11°, and the cells were cultured for 3 days. The culture medium was centrifuged at 1000×g for 10 min to give virus-infected cells. The infected cells were washed with phosphate buffered saline (Invitrogen) and centrifuged under the same conditions, and the obtained cells were cryopreserved at −80° C.
The cryopreserved cells were thawed in ice, suspended in 25 mM HEPES buffer (900 mL, pH 7.5) containing 10% Glycerol, 0.13 M NaCl, 1 mM EDTA, 25 mM sodium β-glycerophosphate, 1 mM sodium orthovanadate, added with Complete Protease Inhibitor (Boehringer). The obtained suspension was homogenized 3 times with a Polytron homogenizer (Kinematica) at 20,000 rpm for 30 seconds. The obtained cell disrupt solution was clarified by centrifugation at 31000×g for 60 min and filtrated using a 0.45 μm filter. The filtrate was passed through a column packed with Ni-NTA Super Flow Gel (QIAGEN, 60 mL) at a flow rate of about 5 mL/min. The column was washed with buffer A (50 mM HEPES containing 0.3M NaCl, pH 7.5), further washed with buffer A containing 20 mM Imidazole, and eluted with buffer A containing 100 mM Imidazole. The eluate was concentrated with Vivaspin 20 (Vivascience) having a molecular weight cut off of 30 K. The obtained concentrate was dialyzed against 50 mM HEPES (pH7.5) containing 10 mM MgCl2, 2 mM dithiothreitol, 10 mM tripotassium citrate and 0.3M NaCl. The dialysate was filtered through a 0.22 μm filter to give ACC2(Nd). The obtained ACC2(Nd) was cryopreserved at −80° C. […]

[1] = Experimental Example 3, same manner as Experimental Example 1, read-out: IC50 values (ACC1 inhibitory activity)
[2] = Table 8, recombinant human ACC1, 30° C., absorbance 620 nm, read-out: IC50 (ACC1 inhibitory activity)
[3] = Experimental Example 4, same manner as Experimental Example 2, read-out: IC50 values (ACC2 inhibitory activity)
[4] = Table 9, recombinant human ACC2(Nd), N terminal deletion, 30° C., absorbance 620 nm, read-out: IC50 (ACC2 inhibitory activity)

| IC50 (human ACC1; [1]) | IC50 (human ACC1; [2]) | IC50 (human ACC2; [3]) | IC50 (human ACC2; [4]) | SMILES |
| --- | --- | --- | --- | --- |
| ≤ 100 nM | 79 nM | ≤ 10 nM | 8 nM | CCNC(=O)Nc1sc2ccccc2c1C(=O)N1CCC(N2CCCC3(C2)CC(C)(C)OC3=O)CC1 (centres unmarked) [Example 36, N-(3-{[4-(3,3-Dimethyl-1-oxo-2-oxa-7-azaspiro[4.5]dec-7-yl)piperidin-1-yl]carbonyl}-1-benzothien-2-yl)-N′-ethylurea] |
| ≤ 100 nM | 140 nM | ≤ 10 nM | 9 nM | CCNC(=O)Nc1sc(-c2ccccn2)cc1C(=O)N1CCC(N2CCCC3(C2)CC(C)(C)OC3=O)CC1 (centres unmarked) [Example 179, 1-(3-{[4-(3,3-dimethyl-1-oxo-2-oxa-7-azaspiro[4.5]dec-7-yl)piperidin-1-yl]carbonyl}-5-(pyridin-2-yl)-2-thienyl)-3-ethylurea] |
| ≤ 100 nM | 80 nM | ≤ 10 nM | 9 nM | CCNC(=O)Nc1sc(-c2ccc(C(=O)O)cc2)cc1C(=O)N1CCC(N2CCCC3(C2)CC(C)(C)OC3=O)CC1 (centres unmarked) [Example 190, 4-(4-{[4-(3,3-dimethyl-1-oxo-2-oxa-7-azaspiro[4.5]dec-7-yl)piperidin-1-yl]carbonyl}-5-[(ethylcarbamoyl)amino]-2-thienyl)benzoic acid] |
| – | 1400 nM | – | 89 nM | CCNC(=O)Nc1cnc(-c2ccccc2)cc1C(=O)N1CCC(N2CCCC3(C2)CC(C)(C)OC3=O)CC1 (centres unmarked) [Example 301, N-(4-{[4-(3,3-dimethyl-1-oxo-2-oxa-7-azaspiro[4.5]dec-7-yl)piperidin-1-yl]carbonyl}-6-phenylpyridin-3-yl)-N′-ethylurea] |
| – | 400 nM | – | 31 nM | CCNC(=O)Nc1sc2ccccc2c1C(=O)N1CCC(N2CCCC3(CC(=O)NC3=O)C2)CC1 (centres unmarked) [Example 311, N-(3-{[4-(1,3-dioxo-2,7-diazaspiro[4.5]dec-7-yl)piperidin-1-yl]carbonyl}-1-benzothien-2-yl)-W-ethylurea] |
| – | 200 nM | – | 19 nM | CCNC(=O)Nc1sc2ccccc2c1C(=O)N1CCC(N2CCCC3(C2)OC(=O)N(CC)C3=O)CC1 (centres unmarked) [Example 327, N-ethyl-N′-(3-{[4-(3-ethyl-2,4-dioxo-1-oxa-3,7-diazaspiro[4.5]dec-7-yl)piperidin-1-yl]carbonyl}-1-benzothien-2-yl)urea] |
| – | 300 nM | – | 45 nM | CCN1CCC2(CCCN(C3CCN(C(=O)c4c(NC(=O)NC)sc5ccccc45)CC3)C2)C1=O (centres unmarked) [Example 339, N-(3-{[4-(2-ethyl-1-oxo-2,7-diazaspiro[4.5]dec-7-yl)piperidin-1-yl]carbonyl}-1-benzothien-2-yl)-N′-methylurea] |

The remaining lines, values behind:

| SMILES | IC50 (human ACC1; [1]) | IC50 (human ACC1; [2]) | IC50 (human ACC2; [3]) | IC50 (human ACC2; [4]) |
| --- | --- | --- | --- | --- |
| CC1(C)CC2(CCCN(C3CCN(C(=O)c4cc(-c5cccnc5)nc5ccccc45)CC3)C2)C(=O)O1 (centres unmarked) [Example 92, 3,3-dimethyl-7-{1-[(2-(pyridin-3-yl)quinolin-4-yl)carbonyl]piperidin-4-yl}-2-oxa-7-azaspiro[4.5]decan-1-one] | – | 4800 nM | – | 110 nM |
| CC(=O)c1cccc(-c2cc(C(=O)N3CCC(N4CCCC5(C4)CC(C)(C)OC5=O)CC3)cc(-c3cccnc3)c2)c1 (centres unmarked) [Example 133, 7-{1-[(3′-acetyl-5-(pyridin-3-yl)biphenyl-3-yl)carbonyl]piperidin-4-yl]-3,3-dimethyl-2-oxa-7-azaspiro[4.5]decan-1-one] | – | 3300 nM | – | 120 nM |
| CC1(C)CC2(CN(C3CCN(C(=O)c4c5ccccc5cc5ccccc45)CC3)CCN2)C(=O)O1 (centres unmarked) [Example 153, 9-[1-(9-anthrylcarbonyl)piperidin-4-yl]-3,3-dimethyl-2-oxa-6,9-diazaspiro[4.5]decan-1-one] | – | 1600 nM | – | 76 nM |
| CCN1C(=O)OC2(CCCN(C3CCN(C(=O)c4c(NC(N)=O)sc5ccccc45)CC3)C2)C1=O (centres unmarked) [Example 229, 1-(3-{[4-(3-ethyl-2,4-dioxo-1-oxa-3,7-diazaspiro[4.5]dec-7-yl)piperidin-1-yl]carbonyl}-1-benzothien-2-yl)urea] | – | 290 nM | – | 49 nM |
| CCNC(=O)Nc1sc(-c2ccccn2)cc1C(=O)N1CCC(N2CCCC3(C2)OC(=O)N(CC)C3=O)CC1 (centres unmarked) [Example 245, 1-ethyl-3-(3-{[4-(3-ethyl-2,4-dioxo-1-oxa-3,7-diazaspiro[4.5]dec-7-yl)piperidin-1-yl]carbonyl}-5-(pyridin-2-yl)-2-thienyl)urea] | – | 980 nM | – | 46 nM |
| CC(C)N1C(=O)OC2(CCCN(C3CCN(C(=O)c4c(NC(N)=O)sc5ccccc45)CC3)C2)C1=O (centres unmarked) [Example 335, N-(3-{[4-(3-isopropyl-2,4-dioxo-1-oxa-3,7-diazaspiro[4.5]dec-7-yl)piperidin-1-yl]carbonyl}-1-benzothien-2-yl)urea] | – | 260 nM | – | 31 nM |
